In ChEMBL document CHEMBL3885861, “Open TG-GATES”:

Species on record: Rattus norvegicus
Test: Open TG-GATES - Regimen: Single
Assay type: toxicity, organism-based, Sprague-Dawley
Set-up: regimen Single, gender Male, age 6 weeks
Conditions: in vivo, po, route gavage; for TC / TG / TP / gamma-GTP / ALT / AST / CRE / Ca / DBIL / GLC / K / LDH / Na / PL / RALB / TBIL / Cl / ALP: tissue Plasma; for Bas / Eos / Fbg / Hb / Ht / Lym / MCHC / MCV / Mono / PT / Plat / RBC / WBC / APTT: tissue Blood; for KIDNEY_L / KIDNEY_R / KIDNEY_TOTAL: tissue Kidney; for LIVER: tissue Liver
[1] = 240 mg/kg, 3 h, dose level Middle
[2] = 240 mg/kg, 6 h, dose level Middle
[3] = 240 mg/kg, 9 h, dose level Middle
[4] = 240 mg/kg, 24 h, dose level Middle
[5] = 800 mg/kg, 3 h, dose level High
[6] = 800 mg/kg, 6 h, dose level High
[7] = 800 mg/kg, 9 h, dose level High
[8] = 800 mg/kg, 24 h, dose level High

Compound: COc1ccc([C@@H]2Sc3ccccc3N(CCN(C)C)C(=O)[C@@H]2OC(C)=O)cc1 [DILTIAZEM]
- TC (80 mg/kg, 24 h, dose level Low): 78.2 mg/dL
- TG (80 mg/kg, 24 h, dose level Low): 67.8 mg/dL
- TP (80 mg/kg, 24 h, dose level Low): 5.5 g/dL
- gamma-GTP (80 mg/kg, 24 h, dose level Low): 1 IU/L
- TERMINAL_BW [1]: 186.7 g
- Bas [1]: 0%
- Eos [1]: 0.8%
- Fbg [1]: 284.8 mg/dL
- Hb [1]: 12.6 g/dL
- Ht [1]: 38.9%
- Lym [1]: 75%
- MCHC [1]: 32.3%
- MCV [1]: 65.9 fL
- Mono [1]: 3.2%
- PT [1]: 14.7 s
- Plat [1]: 119.4 x10_4/uL
- RBC [1]: 588.8 x10_4/ul
- WBC [1]: 87.8 x10_2/uL
- KIDNEY_L [1]: 0.9 g
- KIDNEY_R [1]: 0.9 g
- KIDNEY_TOTAL [1]: 1.7 g
- LIVER [1]: 8.4 g
- ALT [1]: 45.2 IU/L
- AST [1]: 84 IU/L
- CRE [1]: 0.2 mg/dL
- Ca [1]: 10.8 mg/dL
- DBIL [1]: 0.012 mg/dL
- GLC [1]: 186.4 mg/dL
- K [1]: 4.4 meq/L
- LDH [1]: 70.4 IU/L
- Na [1]: 142 meq/L
- PL [1]: 136.8 mg/dL
- RALB [1]: 2.5 g/dL
- TBIL [1]: 0.03 mg/dL
- TC [1]: 75 mg/dL
- TG [1]: 58 mg/dL
- TP [1]: 5.2 g/dL
- gamma-GTP [1]: 1 IU/L
- TERMINAL_BW [2]: 187.5 g
- Bas [2]: 0%
- Eos [2]: 0.8%
- Fbg [2]: 303.8 mg/dL
- Ht [2]: 40.7%
- Lym [2]: 80%
- MCHC [2]: 32%
- MCV [2]: 67.1 fL
- Mono [2]: 3%
- PT [2]: 14.7 s
- Plat [2]: 120.8 x10_4/uL
- RBC [2]: 608.2 x10_4/ul
- WBC [2]: 79.2 x10_2/uL
- KIDNEY_L [2]: 0.9 g
- KIDNEY_R [2]: 0.8 g
- KIDNEY_TOTAL [2]: 1.7 g
- LIVER [2]: 8.1 g
- ALT [2]: 44.8 IU/L
- AST [2]: 73.4 IU/L
- CRE [2]: 0.2 mg/dL
- Ca [2]: 10.9 mg/dL
- Cl [2]: 106.6 meq/L
- DBIL [2]: 0.014 mg/dL
- GLC [2]: 182.8 mg/dL
- K [2]: 4.2 meq/L
- LDH [2]: 54.4 IU/L
- Na [2]: 142.8 meq/L
- PL [2]: 153.6 mg/dL
- RALB [2]: 2.6 g/dL
- TBIL [2]: 0.034 mg/dL
- TC [2]: 86.2 mg/dL
- TG [2]: 47.2 mg/dL
- TP [2]: 5.3 g/dL
- gamma-GTP [2]: 1.2 IU/L
- TERMINAL_BW [3]: 182 g
- APTT [3]: 17.3 s
- Bas [3]: 0.2%
- Eos [3]: 0.8%
- Fbg [3]: 305.8 mg/dL
- Hb [3]: 12.9 g/dL
- Ht [3]: 40.1%
- Lym [3]: 78.6%
- MCHC [3]: 32.2%
- MCV [3]: 67 fL
- Mono [3]: 2.6%
- PT [3]: 14.8 s
- Plat [3]: 121.1 x10_4/uL
- RBC [3]: 599.4 x10_4/ul
- WBC [3]: 83.9 x10_2/uL
- KIDNEY_L [3]: 0.9 g
- KIDNEY_R [3]: 0.9 g
- KIDNEY_TOTAL [3]: 1.7 g
- LIVER [3]: 7.9 g
- ALT [3]: 41.8 IU/L
- AST [3]: 71.8 IU/L
- CRE [3]: 0.1 mg/dL
- Ca [3]: 10.7 mg/dL
- Cl [3]: 105.6 meq/L
- DBIL [3]: 0.012 mg/dL
- GLC [3]: 171.6 mg/dL
- K [3]: 4.1 meq/L
- LDH [3]: 50.8 IU/L
- Na [3]: 143 meq/L
- PL [3]: 150.4 mg/dL
- RALB [3]: 2.5 g/dL
- TBIL [3]: 0.028 mg/dL
- TC [3]: 82 mg/dL
- TG [3]: 45.8 mg/dL
- TP [3]: 5.2 g/dL
- gamma-GTP [3]: 1 IU/L
- TERMINAL_BW [4]: 196.9 g
- Bas [4]: 0%
- Eos [4]: 1%
- Fbg [4]: 271.8 mg/dL
- Hb [4]: 13 g/dL
- Ht [4]: 39.6%
- Lym [4]: 75.6%
- MCHC [4]: 32.9%
- MCV [4]: 64.6 fL
- Mono [4]: 2.8%
- PT [4]: 14.8 s
- Plat [4]: 120 x10_4/uL
- RBC [4]: 614.2 x10_4/ul
- WBC [4]: 85.8 x10_2/uL
- KIDNEY_L [4]: 0.9 g
- KIDNEY_R [4]: 0.9 g
- KIDNEY_TOTAL [4]: 1.8 g
- LIVER [4]: 9.5 g
- ALT [4]: 51 IU/L
- AST [4]: 76.2 IU/L
- CRE [4]: 0.2 mg/dL
- Ca [4]: 11.2 mg/dL
- Cl [4]: 106.8 meq/L
- DBIL [4]: 0.018 mg/dL
- GLC [4]: 173.6 mg/dL
- K [4]: 4.2 meq/L
- LDH [4]: 82.4 IU/L
- Na [4]: 144.4 meq/L
- PL [4]: 150.4 mg/dL
- RALB [4]: 2.7 g/dL
- TBIL [4]: 0.022 mg/dL
- TC [4]: 81.2 mg/dL
- TG [4]: 95.8 mg/dL
- TP [4]: 5.5 g/dL
- gamma-GTP [4]: 1.2 IU/L
- TERMINAL_BW [5]: 189.3 g
- Bas [5]: 0%
- Eos [5]: 0.4%
- Fbg [5]: 277.6 mg/dL
- Hb [5]: 12.7 g/dL
- Ht [5]: 39.2%
- Lym [5]: 69.6%
- MCHC [5]: 32.5%
- MCV [5]: 65.1 fL
- Mono [5]: 4.4%
- PT [5]: 14.6 s
- Plat [5]: 121.1 x10_4/uL
- RBC [5]: 601.6 x10_4/ul
- WBC [5]: 95.2 x10_2/uL
- KIDNEY_L [5]: 0.8 g
- KIDNEY_R [5]: 0.9 g
- KIDNEY_TOTAL [5]: 1.7 g
- LIVER [5]: 8.3 g
- ALT [5]: 52.6 IU/L
- AST [5]: 92 IU/L
- CRE [5]: 0.2 mg/dL
- Ca [5]: 10.7 mg/dL
- Cl [5]: 103.8 meq/L
- DBIL [5]: 0.008 mg/dL
- GLC [5]: 193 mg/dL
- K [5]: 4.4 meq/L
- LDH [5]: 64.4 IU/L
- Na [5]: 140.8 meq/L
- PL [5]: 137.2 mg/dL
- RALB [5]: 2.5 g/dL
- TBIL [5]: 0.028 mg/dL
- TC [5]: 76.8 mg/dL
- TG [5]: 48.4 mg/dL
- TP [5]: 5.2 g/dL
- gamma-GTP [5]: 1 IU/L
- TERMINAL_BW [6]: 185.7 g
- APTT [6]: 17.5 s
- Bas [6]: 0.4%
- Eos [6]: 0.8%
- Fbg [6]: 311 mg/dL
- Hb [6]: 13.3 g/dL
- Ht [6]: 41.5%
- Lym [6]: 77.6%
- MCHC [6]: 32.1%
- MCV [6]: 66 fL
- Mono [6]: 3.2%
- PT [6]: 14.7 s
- Plat [6]: 126.6 x10_4/uL
- RBC [6]: 629 x10_4/ul
- WBC [6]: 95.6 x10_2/uL
- KIDNEY_L [6]: 0.8 g
- KIDNEY_R [6]: 0.8 g
- KIDNEY_TOTAL [6]: 1.7 g
- LIVER [6]: 7.8 g
- ALT [6]: 45 IU/L
- AST [6]: 74.6 IU/L
- CRE [6]: 0.2 mg/dL
- Ca [6]: 10.7 mg/dL
- DBIL [6]: 0.008 mg/dL
- GLC [6]: 176 mg/dL
- K [6]: 4 meq/L
- LDH [6]: 59.2 IU/L
- Na [6]: 143 meq/L
- PL [6]: 158.8 mg/dL
- RALB [6]: 2.5 g/dL
- TBIL [6]: 0.032 mg/dL
- TC [6]: 91.8 mg/dL
- TG [6]: 40.6 mg/dL
- TP [6]: 5.2 g/dL
- gamma-GTP [6]: 1 IU/L
- TERMINAL_BW [7]: 185.3 g
- Bas [7]: 0%
- Eos [7]: 0.8%
- Fbg [7]: 316.2 mg/dL
- Hb [7]: 12.6 g/dL
- Ht [7]: 38.6%
- Lym [7]: 74.8%
- MCHC [7]: 32.6%
- MCV [7]: 62.9 fL
- Mono [7]: 2.8%
- PT [7]: 14.7 s
- Plat [7]: 132.9 x10_4/uL
- RBC [7]: 613 x10_4/ul
- WBC [7]: 97 x10_2/uL
- KIDNEY_L [7]: 0.8 g
- KIDNEY_R [7]: 0.8 g
- KIDNEY_TOTAL [7]: 1.6 g
- LIVER [7]: 7.2 g
- ALP [7]: 1763.8 IU/L
- ALT [7]: 48.4 IU/L
- AST [7]: 81.2 IU/L
- CRE [7]: 0.2 mg/dL
- Ca [7]: 10.4 mg/dL
- Cl [7]: 105.8 meq/L
- DBIL [7]: 0.01 mg/dL
- GLC [7]: 170.2 mg/dL
- K [7]: 4.2 meq/L
- LDH [7]: 53.6 IU/L
- Na [7]: 142.4 meq/L
- PL [7]: 144.8 mg/dL
- RALB [7]: 2.6 g/dL
- TBIL [7]: 0.026 mg/dL
- TC [7]: 78.4 mg/dL
- TG [7]: 59 mg/dL
- TP [7]: 5.3 g/dL
- gamma-GTP [7]: 1.2 IU/L
- TERMINAL_BW [8]: 195.5 g
- Bas [8]: 0%
- Eos [8]: 0.8%
- Fbg [8]: 299 mg/dL
- Ht [8]: 39.9%
- Lym [8]: 76.6%
- MCHC [8]: 33%
- MCV [8]: 64.4 fL
- Mono [8]: 4.4%
- PT [8]: 15 s
- Plat [8]: 125.7 x10_4/uL
- RBC [8]: 621.2 x10_4/ul
- WBC [8]: 83.8 x10_2/uL
- KIDNEY_L [8]: 0.9 g
- KIDNEY_R [8]: 0.9 g
- KIDNEY_TOTAL [8]: 1.7 g
- LIVER [8]: 9.3 g
- ALP [8]: 2052.4 IU/L
- ALT [8]: 41.2 IU/L
- AST [8]: 66.6 IU/L
- CRE [8]: 0.2 mg/dL
- Ca [8]: 11.1 mg/dL
- Cl [8]: 107.6 meq/L
- DBIL [8]: 0.02 mg/dL
- GLC [8]: 168.6 mg/dL
- K [8]: 4.3 meq/L
- LDH [8]: 87.2 IU/L
- Na [8]: 144 meq/L
- PL [8]: 144.8 mg/dL
- RALB [8]: 2.7 g/dL
- TBIL [8]: 0.018 mg/dL
- TC [8]: 77.4 mg/dL
- TG [8]: 108.6 mg/dL
- TP [8]: 5.6 g/dL
- gamma-GTP [8]: 1 IU/L
